{
  "source": "patent US20190256491A1",
  "about": "“Methods For Treatment Of 16P11.2 Microdeletion Syndrome” (Massachusetts Institute of Technology, priority 2012, published 2019)",
  "key": {"[1]": {"system": "mGluR5-LTD at the Schaffer collateral-CA1 synapse of hippocampal slices", "experiment": "PP-LFS LTD, hippocampal slice electrophysiology", "parameters": "species or system mouse", "details": "ACSF with APV 50 μM ± CHX 30 min", "experimental": "(§1) Electrophysiological experiments were performed at the Schaffer collateral-CA1 synapse of hippocampal slices prepared from p28 to p35 male mice using experimental protocols as previously described ((Auerbach et al., 2011)). Dorsal hippocampal slices (400 μm thick) were used in all recordings. Input-output functions were determined by incrementally (10 μA to 100 μA) stimulating the Schaffer collaterals and recording the resulting fEPSP response. Paired-pulse facilitation was conducted by applying two stimulus pulses at varying inter-stimulus-intervals (ISI). Facilitation was measured by taking the ratio of the fEPSP slope in response to stimulus 2 to that of stimulus 1. […] For paired-pulse low frequency stimulation (PP-LFS) slices were incubated in ACSF containing APV (50 μM)±CHX for 30 min. mGluR5-LTD was then induced by application (20 min) of paired-pulse stimulation (50 ms ISI) at 1 Hz, and synaptic responses were recorded for an additional 60 min.\n(§2) Group I mGluR mediated synaptic plasticity was assessed. mGluR-LTD can be induced either by chemical induction by pharmacological stimulation of mGluRs (DHPG-LTD) or electrical induction by applying a series of paired pulses at about 50 ms interval (PP-LFS-LTD). […]"}, "[2]": {"system": "mGluR-LTD at the Schaffer collateral-CA1 synapse of hippocampal slices", "experiment": "DHPG-LTD, hippocampal slice electrophysiology", "parameters": "species or system mouse", "details": "CHX 60 μM, 40 min, DHPG 50 μM, 5 min", "experimental": "as §1, §2"}, "[3]": {"system": "chr7qF3 mutant mice (mouse model of human chr16p11.2 microdeletion) and WT mice", "experiment": "Inhibitory avoidance extinction (IAE) test", "type": "in vivo", "experimental": "Inhibitory avoidance extinction (IAE) tests were performed as previously described with modification ((Dolen et al., 2007)). Briefly, 4-6 weeks male mice were divided into four groups according to genotype and CTEP treatment: WT+vehicle, WT+CTEP, Mutant+vehicle, and Mutant+CTEP. CTEP or vehicle was administered by oral gavage every other day for 4 weeks. The last dose was given about 16-20 hours prior to the training session. IA tests were conducted in a two-chambered Perspex box consisting of a lighted side and a dark side separated by a trap door. On the training day, mice were habituated in the behavioral room for about 2 hours before training. During training, a mouse was placed into the lit side of the chamber and allowed to explore for about 30 seconds before the trap door was opened. The ensuing time spent by the animal in the light chamber before entering the dark chamber was recorded as latency. Immediately after fully entering the dark side of the camber, subjects were given about a 2 sec mild foot shock (about 0.4 mA) and allowed to spend an additional 60 sec before being returned to their home-cage. The acquisition and expression of fear memory was tested at about 6, about 24, and about 48 hours post training. The testing protocol used was the same as the training protocol. Latencies to enter the dark side of the chamber were recorded and used as measurement of IAE performance. Statistical significance was determined using two-way ANOVA and post hoc Student's t-tests.\nMice were evaluated in another hippocampus-associated behavioral paradigm: inhibitory avoidance (IA). IA is a multi-phase test used to assay memory formation and extinction. During the training session (0 hr), mice were placed in the light chamber of a two-chamber box. After a variable latency in the light side, they entered the dark side of the box where about a 2 sec foot-shock was delivered. Acquisition and extinction of the fear memory, as measured by the latency to re-enter the dark chamber from the lighted side, was tested 6 hr (acquisition) as well as about 24 hr and about 48 hr (extinction) after training. Experiments were conducted to determine: (1) if chr7qF3 mice had deficits similar to Fmrl KO mice in the IA test, and (2) if deficits were present, could the mGluR5 inhibitor CTEP treatment ameliorate them. Mice were divided into four groups: WT+vehicle, WT+CTEP, Mut+vehicle, and Mut+CTEP. CTEP was given by the same dosing regime previously used with Fmrl KO mice ((Michalon et al., 2012))."}, "[4]": {"system": "pre-synaptic glutamate release, Schaffer collateral-CA1 synapse of hippocampal slices", "experiment": "Paired-pulse facilitation at beginning and end of DHPG-LTD experiment", "parameters": "species or system mouse", "details": "both WT and mutant slices; independent of CHX treatment", "experimental": "as §1\nTo test whether the difference in CHX sensitivity between WT and mutant slices was due to a different pre-synaptic response to either DHPG treatment or PP-LFS induction, paired pulse facilitation at the beginning and end of DHPG-LTD experiment (FIGS. 2C and 2D) was assessed. […]"}},
  "note": "Entries after “also recorded” stand apart in the source; their conditions may differ.",
  "data": [
    {"smiles": "C[C@@H]1C[C@@H]([C@H](O)CC2CC(=O)NC(=O)C2)C(=O)[C@@H](C)C1", "note": "[CHX, Cycloheximide]", "values": [
      {"measurement": "effect on PP-LFS LTD", "setting": "[1]; WT slices", "value": "almost completely blocked"},
      {"measurement": "effect on PP-LFS LTD", "setting": "[1]; chr7qF3 mutant slices", "value": "no effect; also recorded: remains unaffected"},
      {"measurement": "effect on DHPG-induced LTD", "setting": "[2]; WT slices", "value": "significantly blocked"},
      {"measurement": "effect on DHPG-induced LTD", "setting": "[2]; chr7qF3 mutant slices", "value": "no effect; also recorded: remains unaffected"}
    ]},
    {"smiles": "Cc1nc(C#Cc2ccnc(Cl)c2)c(C)n1-c1ccc(OC(F)(F)F)cc1", "note": "[CTEP, 2-chloro-4-((2,5-dimethyl-1-(4-(trifluoromethoxy)phenyl)-1H-imidazol-4-yl)ethynyl)pyridine]", "values": [
      {"measurement": "latency to re-enter the chamber", "setting": "[3]; Chr7qF3 mutant mice, 6, 24 and 48 hours post training, chronic oral gavage every other day for 4 weeks", "value": "significantly lengthens"},
      {"measurement": "extinction of fear memory at 48 hr", "setting": "[3]; Mut+CTEP, similar to the two wildtype groups", "value": "significant extinction"},
      {"measurement": "latency to re-enter the dark chamber at 6 hr (acquisition)", "setting": "[3]; Mut+CTEP, to a level comparable to WT+vehicle mice", "value": "dramatically lengthened"},
      {"measurement": "effect on latency to re-enter the chamber", "setting": "[3]; WT mice, WT+CTEP vs WT+vehicle", "value": "no effect"},
      {"measurement": "extinction of fear memory at 48 hr", "setting": "[3]; WT+CTEP", "value": "exhibited extinction"},
      {"measurement": "cognitive impairment / fear memory deficits in IAE test", "setting": "[3]; chr7qF3 mutant mice, chronic oral treatment", "value": "significantly ameliorates; also recorded: ameliorated"}
    ]},
    {"smiles": "N[C@H](C(=O)O)c1cc(O)cc(O)c1", "note": "[DHPG, S-3,5-dihydrozyphenylglycine]", "values": [
      {"measurement": "paired pulse facilitation after DHPG treatment", "setting": "[4]", "value": "increased paired pulse facilitation"}
    ]}
  ]
}
